Experimental data reported in EP2762573A1, “In vitro method for determining cholestatic properties of a compound” (priority 2013, dated 2014).
Where two headings read alike, the source gives them in different places.

Legend:
Bcl2l11 = assay: Biomarkers validation by q-pcr in precision cut liver slices: Bcl2l11 expression
Procedure: (§1) 23-weeks old male C57BL/6 mice were obtained from Harlan (Horst, The Netherlands). Animals were kept for 1 week at a housing temperature of 22°C and at a relative humidity of 30-70%. The lighting cycle was 12-h light and 12-h dark. At the age of 24 weeks animals were sacrificed by an overdose of isoflurane. The treatment protocol was approved by the Ethical Committee for Animal Experiments at Wageningen University.
(§2) Immediately after the animals were killed the liver was perfused with PBS and placed in ice-cold Krebs-Henseleit buffer (KHB) (pH 7.4, supplemented with 11 mM glucose). Liver tissue was transported to the laboratory within approximately 30 min and cylindrical liver cores were produced using a surgical biopsy punch with diameter of 5 mm (KAI, SynErgo Europe, Romania). Liver cores were placed in a Krumdieck tissue slicer (Alabama Research and Development, Munford, AL) filled with ice-cold KHB aerated with carbogen and supplemented with 11 mM glucose. Precesion cut liver slices (PCLS) with a diameter of 5 mm, a thickness of 0.2 mm and a weight of approximately 10 mg were prepared. Immediately after preparation, slices were transferred into culture plates filled with pre-warmed (37 degrees C) Williams E medium (WEM). Three liver slices were pre-cultured in one well of the 6-well plate filled with 4 ml of WEM for one hour with continuous shaking (70 rpm). Incubations were performed in an oxygen controlled incubator (Galaxy 48 R New Brunswick, Nijmegen, the Netherlands) at 80% of oxygen; 5% CO2 and the remaining gas volume was filled up to […] with N2. After one hour of pre-incubation, media were removed and replaced with fresh media containing test compounds or appropriate solvents. After incubations, samples were snap-frozen in liquid nitrogen and stored in -80 °C for further analysis. Samples dedicated to histology were stored in 4 % formaldehyde at room temperature.
(§3) PCLS were incubated at the same conditions as described above. Slices were exposed for 24 and 48 hours to one concentration of the tested compounds or controls. Concentrations used in the exposure experiments were preselected in the dose selection experiments for each drug individually. […] For the necrotic compounds: 1000 uM acetaminophen, 5 µM paraquat and 1000 uM isoniazid. Liver slices obtained from five mice were used in five toxic compound or control exposure experiments performed at the same time. Dose selection experiments and exposure experiments were performed at different days. Therefore, ATP, LDH, and protein assays were performed again for the exposure experiments to confirm that the selected doses did also not affect slice viability in these experiments.
(§4) In further studies, expression of ten candidate biomarkers in PCLS was analyzed by q-pcr using the Biorad CFX96 TM Real-Time Detection System (Bio-Rad, Veenendaal, The Netherlands) with the following cycling conditions: 15 min 95°C followed by 40 cycles of 15s 95 °C and 1 min 60 °C. Reactions were performed in 10 µl and contained 20 ng cDNA, 1x TaqMan PCR Master Mix (Applied Biosystems, Foster City, CA), and depending on the analysed gene, 250 nM probe and 900 nM primer (for actin b) or 1xTaqMan gene expression assay (for the remaining genes) (Applied Biosystems, foster City, CA).

Parp16 = assay: Biomarkers validation by q-pcr in precision cut liver slices: Parp16 expression
Procedure: as §1, §2, §3, §4

Mras = assay: Biomarkers validation by q-pcr in precision cut liver slices: Mras expression
Procedure: as §1, §2, §3, §4

Myo1e = assay: Biomarkers validation by q-pcr in precision cut liver slices: Myo1e expression
Procedure: as §1, §2, §3, §4

Nme6 = assay: Biomarkers validation by q-pcr in precision cut liver slices: Nme6 expression
Procedure: as §1, §2, §3, §4

ABCG5 = assay: Biomarkers validation by q-pcr in precision cut liver slices: ABCG5 expression
Procedure: as §1, §2, §3, §4

ABCG8 = assay: Biomarkers validation by q-pcr in precision cut liver slices: ABCG8 expression
Procedure: as §1, §2, §3, §4

SERPINE1 = assay: Biomarkers validation by q-pcr in precision cut liver slices: SERPINE1 expression
Procedure: as §1, §2, §3, §4

BAAT = assay: Biomarkers validation by q-pcr in precision cut liver slices: BAAT expression
Procedure: as §1, §2, §3, §4

KLF15 = assay: Biomarkers validation by q-pcr in precision cut liver slices: KLF15 expression
Procedure: as §1, §2, §3, §4

PCLS = assay: Cytotoxicity analysis - dose selection experiments (LDH, ATP, protein assay)
Procedure: as §1, §2, §3

`C[n+]1ccc(-c2cc[n+](C)cc2)cc1` [PQ, paraquat] was tested, and the “*fold change 1, gene expression level Bcl2111” value (Bcl2l11) was 1,3, the “*fold change 2, gene expression level Bcl2111” value (Bcl2l11) was 1,1 and the “*fold change 3, gene expression level Bcl2111” value (Bcl2l11) was 1,1. For the same molecule, the “*fold change 4, gene expression level Bcl2111” value (Bcl2l11) was 1,2, the “*fold change 5, gene expression level Bcl2111” value (Bcl2l11) was 1,1 and the “*fold change 1, gene expression level Parp 16” value (Parp16) was 1,6. For the same molecule, the “*fold change 2, gene expression level Parp 16” value (Parp16) was 1,0, the “*fold change 3, gene expression level Parp 16” value (Parp16) was 1,0 and the “*fold change 4, gene expression level Parp 16” value (Parp16) was 1,1. The “*fold change 5, gene expression level Parp 16” value (Parp16) was 1,4, the “*fold change 1, gene expression level Mras” value (Mras) was 1,4 and the “*fold change 2, gene expression level Mras” value (Mras) was 1,3. The “*fold change 3, gene expression level Mras” value (Mras) was 1,1, the “*fold change 4, gene expression level Mras” value (Mras) was 1,1 and the “*fold change 5, gene expression level Mras” value (Mras) was 1,4. The “*fold change 1, gene expression level Myo 1e” value (Myo1e) was 1,1, the “*fold change 2, gene expression level Myo 1e” value (Myo1e) was 1,4 and the “*fold change 3, gene expression level Myo 1e” value (Myo1e) was 1,1. For the same molecule, the “*fold change 4, gene expression level Myo 1e” value (Myo1e) was 1,2, the “*fold change 5, gene expression level Myo 1e” value (Myo1e) was 1,2 and the “*fold change 1, gene expression level Nme6” value (Nme6) was 1,1. For the same molecule, the “*fold change 2, gene expression level Nme6” value (Nme6) was -1,2, the “*fold change 3, gene expression level Nme6” value (Nme6) was 1,0 and the “*fold change 4, gene expression level Nme6” value (Nme6) was 1,1. For the same molecule, the “*fold change 5, gene expression level Nme6” value (Nme6) was 1,2, the “*fold change 1, gene expression level ABCG5” value (ABCG5) was 1,1 and the “*fold change 2, gene expression level ABCG5” value (ABCG5) was 1,1. For the same molecule, the “*fold change 3, gene expression level ABCG5” value (ABCG5) was 1,7, the “*fold change 4, gene expression level ABCG5” value (ABCG5) was -1,3 and the “*fold change 5, gene expression level ABCG5” value (ABCG5) was -1,6. For the same molecule, the “*fold change 1, gene expression level ABCG8” value (ABCG8) was 1,0, the “*fold change 2, gene expression level ABCG8” value (ABCG8) was -1,2 and the “*fold change 3, gene expression level ABCG8” value (ABCG8) was 1,8. The “*fold change 4, gene expression level ABCG8” value (ABCG8) was -1,3, the “*fold change 5, gene expression level ABCG8” value (ABCG8) was -1,4 and the “*fold change 1, gene expression level SERPINE1” value (SERPINE1) was 2,7. The “*fold change 2, gene expression level SERPINE1” value (SERPINE1) was 2,3, the “*fold change 3, gene expression level SERPINE1” value (SERPINE1) was 2,7 and the “*fold change 4, gene expression level SERPINE1” value (SERPINE1) was 1,3. For the same molecule, the “*fold change 5, gene expression level SERPINE1” value (SERPINE1) was 1,9, the “MW test, gene expression level SERPINE1” value (SERPINE1; Mann-Whitney test vs controls, 5 mice, mouse PCLS, same concentrations as fold change columns) was “* (A p-value <0.05 was considered significant)” and the “*fold change 1, gene expression level BAAT” value (BAAT) was -1,2. For the same molecule, the “*fold change 2, gene expression level BAAT” value (BAAT) was -1,0, the “*fold change 3, gene expression level BAAT” value (BAAT) was 1,7 and the “*fold change 4, gene expression level BAAT” value (BAAT) was 1,1. For the same molecule, the “*fold change 5, gene expression level BAAT” value (BAAT) was -1,4, the “*fold change 1, gene expression level KLF15” value (KLF15) was 1,3 and the “*fold change 2, gene expression level KLF15” value (KLF15) was -1,0. The “*fold change 3, gene expression level KLF15” value (KLF15) was 1,3, the “*fold change 4, gene expression level KLF15” value (KLF15) was 1,1 and the “*fold change 5, gene expression level KLF15” value (KLF15) was -1,2. The “highest concentration that did not cause significant increase of toxicity” value (PCLS; mouse PCLS, LDH, ATP, and protein assay, concentration then used in exposure experiments) was 5 µM.
For `CC(=O)Nc1ccc(O)cc1` [APAP, acetaminophen], the “*fold change 1, gene expression level Bcl2111” value (Bcl2l11; male, C57BL/6, mouse) was 1,9, the “*fold change 2, gene expression level Bcl2111” value (Bcl2l11; male, C57BL/6, mouse) was 1,1 and the “*fold change 3, gene expression level Bcl2111” value (Bcl2l11; male, C57BL/6, mouse) was 2,0. For the same molecule, the “*fold change 4, gene expression level Bcl2111” value (Bcl2l11; male, C57BL/6, mouse) was 2,4, the “*fold change 5, gene expression level Bcl2111” value (Bcl2l11; male, C57BL/6, mouse) was 1,7 and the “*fold change 1, gene expression level Parp 16” value (Parp16; male, C57BL/6, mouse) was 1,4. For the same molecule, the “*fold change 2, gene expression level Parp 16” value (Parp16; male, C57BL/6, mouse) was -1,3, the “*fold change 3, gene expression level Parp 16” value (Parp16; male, C57BL/6, mouse) was 1,4 and the “*fold change 4, gene expression level Parp 16” value (Parp16; male, C57BL/6, mouse) was 1,5. For the same molecule, the “*fold change 5, gene expression level Parp 16” value (Parp16; male, C57BL/6, mouse) was 1,6, the “*fold change 1, gene expression level Mras” value (Mras; male, C57BL/6, mouse) was 1,7 and the “*fold change 2, gene expression level Mras” value (Mras; male, C57BL/6, mouse) was -1,0. The “*fold change 3, gene expression level Mras” value (Mras; male, C57BL/6, mouse) was 1,3, the “*fold change 4, gene expression level Mras” value (Mras; male, C57BL/6, mouse) was 1,2 and the “*fold change 5, gene expression level Mras” value (Mras; male, C57BL/6, mouse) was 1,4. For the same molecule, the “*fold change 1, gene expression level Myo 1e” value (Myo1e; male, C57BL/6, mouse) was 1,1, the “*fold change 2, gene expression level Myo 1e” value (Myo1e; male, C57BL/6, mouse) was -1,2 and the “*fold change 3, gene expression level Myo 1e” value (Myo1e; male, C57BL/6, mouse) was 1,4. The “*fold change 4, gene expression level Myo 1e” value (Myo1e; male, C57BL/6, mouse) was 1,4, the “*fold change 5, gene expression level Myo 1e” value (Myo1e; male, C57BL/6, mouse) was 1,4 and the “*fold change 1, gene expression level Nme6” value (Nme6; male, C57BL/6, mouse) was -1,2. For the same molecule, the “*fold change 2, gene expression level Nme6” value (Nme6; male, C57BL/6, mouse) was -1,2, the “*fold change 3, gene expression level Nme6” value (Nme6; male, C57BL/6, mouse) was -1,1 and the “*fold change 4, gene expression level Nme6” value (Nme6; male, C57BL/6, mouse) was -1,3. For the same molecule, the “*fold change 5, gene expression level Nme6” value (Nme6; male, C57BL/6, mouse) was 1,0, the “*fold change 1, gene expression level ABCG5” value (ABCG5; male, C57BL/6, mouse) was -2,1 and the “*fold change 2, gene expression level ABCG5” value (ABCG5; male, C57BL/6, mouse) was -1,3. For the same molecule, the “*fold change 3, gene expression level ABCG5” value (ABCG5; male, C57BL/6, mouse) was 1,4, the “*fold change 4, gene expression level ABCG5” value (ABCG5; male, C57BL/6, mouse) was -1,4 and the “*fold change 5, gene expression level ABCG5” value (ABCG5; male, C57BL/6, mouse) was 1,1. For the same molecule, the “*fold change 1, gene expression level ABCG8” value (ABCG8; male, C57BL/6, mouse) was -1,7, the “*fold change 2, gene expression level ABCG8” value (ABCG8; male, C57BL/6, mouse) was -1,2 and the “*fold change 3, gene expression level ABCG8” value (ABCG8; male, C57BL/6, mouse) was 1,4. The “*fold change 4, gene expression level ABCG8” value (ABCG8; male, C57BL/6, mouse) was -1,1, the “*fold change 5, gene expression level ABCG8” value (ABCG8; male, C57BL/6, mouse) was 1,4 and the “*fold change 1, gene expression level SERPINE1” value (SERPINE1; male, C57BL/6, mouse) was -1,6. The “*fold change 2, gene expression level SERPINE1” value (SERPINE1; male, C57BL/6, mouse) was -1,4, the “*fold change 3, gene expression level SERPINE1” value (SERPINE1; male, C57BL/6, mouse) was 1,2 and the “*fold change 4, gene expression level SERPINE1” value (SERPINE1; male, C57BL/6, mouse) was -1,3. For the same molecule, the “*fold change 5, gene expression level SERPINE1” value (SERPINE1; male, C57BL/6, mouse) was 1,5, the “*fold change 1, gene expression level BAAT” value (BAAT; male, C57BL/6, mouse) was -5,0 and the “*fold change 2, gene expression level BAAT” value (BAAT; male, C57BL/6, mouse) was -2,0. For the same molecule, the “*fold change 3, gene expression level BAAT” value (BAAT; male, C57BL/6, mouse) was -1,4, the “*fold change 4, gene expression level BAAT” value (BAAT; male, C57BL/6, mouse) was -2,8 and the “*fold change 5, gene expression level BAAT” value (BAAT; male, C57BL/6, mouse) was -1,5. The “*fold change 1, gene expression level KLF15” value (KLF15; male, C57BL/6, mouse) was -1,5, the “*fold change 2, gene expression level KLF15” value (KLF15; male, C57BL/6, mouse) was -1,2 and the “*fold change 3, gene expression level KLF15” value (KLF15; male, C57BL/6, mouse) was -1,4. For the same molecule, the “*fold change 4, gene expression level KLF15” value (KLF15; male, C57BL/6, mouse) was -1,1, the “*fold change 5, gene expression level KLF15” value (KLF15; male, C57BL/6, mouse) was 1,2 and the “highest concentration that did not cause significant increase of toxicity” value (PCLS; male, C57BL/6, mouse) was 1000 µM.
